What all share (assay): inhibition of tumour cell growth, NCI panel, 48 h
Assay [1] relates to Malme-3M.
For assay [2], the system named is SK-MEL-2.
Assay [3] concerns MOLT-4.
The subject of assay [4] is OVCAR-5.
For assay [5], the system named is NCI-H460.
Assay [6] concerns SK-MEL-28.
The test system of assay [7] is OVCAR-4.
In assay [8] the test system is M14.
Assay [9] relates to SK-OV-3.
Assay [10] concerns RXF 393.
In assay [11] the test system is COLO 205.
The test system of assay [12] is SK-MEL-5.
The subject of assay [13] is UACC-257.
In assay [14] the test system is SNB-75.
For assay [15], the system named is HT-29.
Assay [16] relates to U-251.
Assay [17] relates to NCI-H23.
Assay [18] has as its system SW-620.
Assay [19] deals with CAKI-1.
The subject of assay [20] is A498.

The values that follow come from ChEMBL document CHEMBL1201862, “PubChem BioAssay data set” (2004).

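These data come from cells grown in 96-well plates and exposed to compound for 48 hours at five concentrations. The concentration for 50% growth inhibition is given as GI50.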 Calls of active or inactive are those of the source. Rule as the data show it: active = GI50 up to about 1.1 µM and inactive = higher.

`C=C1C2=C(CCCC2)C(=O)OC12CCCCC2`: the GI50 in [1] is 51.3 µM (inactive); in assay [2] it was 70.3 µM (inactive); in [3] it was 38.5 µM (inactive); in assay [4] it was 79.8 µM (inactive); in assay [5], 91.4 µM (inactive); in [6] it was 79.4 µM (inactive). Besides, the GI50 is 98.2 µM (inactive) in [7]; > 100 µM (inactive) in assay [8]; > 100 µM (inactive) in assay [9]; 56.5 µM (inactive) in [10]; 51.2 µM (inactive) in [11]; 38 µM (inactive) in assay [12]. Besides, the GI50 in assay [13] is 52.1 µM (inactive); in assay [14], 23.8 µM (inactive); in assay [15], 59.4 µM (inactive); in [16], 73.6 µM (inactive); in [17] it was 36.9 µM (inactive); in [18], > 100 µM (inactive).

Take `c1ccc2c(NCCCCCCCCNc3cccc4ccccc34)cccc2c1`: the GI50 in [1] is 22 µM (inactive); in assay [2], 35.8 µM (inactive); in [3], 16.7 µM (inactive); in assay [4], 46 µM (inactive); in [5], 21.7 µM (inactive); in assay [6] it was 19.5 µM (inactive). For the same compound, the GI50 in assay [19] is 19.7 µM (inactive); in [7] it was 28.2 µM (inactive); in assay [8], 19.9 µM (inactive); in [9], > 100 µM (inactive); in assay [20] it was 44.1 µM (inactive); in assay [11] it was 18.6 µM (inactive). For the same compound, the GI50 in assay [12] was > 10 µM (inactive); in [13], 19.8 µM (inactive); in assay [14], 21.4 µM (inactive); in assay [15], 32.4 µM (inactive); in assay [16], 63.2 µM (inactive); in assay [17], 25.3 µM (inactive). Further, the GI50 in [18] was 21.1 µM (inactive).

Take `O=S(=O)(c1ccc(I)cc1)N(c1ccccc1)S(=O)(=O)C(F)(F)C(F)(F)C(F)(F)C(F)(F)F`: the GI50 in assay [1] was 18.6 µM (inactive); in assay [2], 29.2 µM (inactive); in assay [3], 39.4 µM (inactive); in [4], 24.9 µM (inactive); in assay [5], 31.9 µM (inactive); in assay [6], 40.6 µM (inactive). Besides, the GI50 is 34.1 µM (inactive) in [19]; 24.5 µM (inactive) in assay [7]; 34.8 µM (inactive) in [8]; 26.4 µM (inactive) in [9]; 24.8 µM (inactive) in assay [10]; 40 µM (inactive) in assay [11]. Besides, the GI50 in assay [13] is > 100 µM (inactive); in assay [15], 22.4 µM (inactive); in [16], 75.2 µM (inactive); in assay [17], 43.2 µM (inactive); in assay [18], 34.7 µM (inactive).

Turning to `CC1(Cl)CC2C(CC1Sc1nnnn1-c1ccccc1)C2(C)C` (configuration not stated), the GI50 is > 100 µM (inactive) in assay [2]; 30.1 µM (inactive) in assay [3]; > 100 µM (inactive) in [4]; 89.9 µM (inactive) in assay [5]; > 100 µM (inactive) in assay [6]; > 100 µM (inactive) in assay [7]. Further, the GI50 was > 100 µM (inactive) in [8]; 48.9 µM (inactive) in assay [10]; 83.8 µM (inactive) in assay [11]; 58.2 µM (inactive) in assay [12]; 87.3 µM (inactive) in assay [13]; > 100 µM (inactive) in [15]. The GI50 in [17] was 64.3 µM (inactive); in [18] it was > 100 µM (inactive).

In the case of `CCc1n[nH]c(=O)n1CC`, the GI50 in [1], in assay [2], in assay [3], in assay [4], in assay [5] and in assay [6] was > 100 µM (inactive) throughout. For the same compound, the GI50 in assay [19], in assay [7], in assay [9], in assay [20], in assay [11] and in assay [12] was > 100 µM (inactive) in each case. Also, the GI50 in assay [13], in assay [15], in assay [16], in [17] and in assay [18] was > 100 µM (inactive) each time.

As for `CCCCSCCC(N)P(=O)(O)O` (configuration not stated), the GI50 in [2], in [3], in [4], in assay [5], in assay [6] and in assay [19] was > 100 µM (inactive) in each case. Moreover, the GI50 in assay [7], in assay [8], in [9], in [11], in assay [12] and in [13] was > 100 µM (inactive) each time. Also, the GI50 in assay [14], in assay [15], in assay [16], in assay [17] and in assay [18] was > 100 µM (inactive) in each case.

On to `COc1ccc(CCn2nccc2C)cc1`, for which the GI50 in assay [1], in [3], in [4], in [5], in [6] and in assay [19] was > 100 µM (inactive) in each case. For the same compound, the GI50 in assay [7], in assay [8], in [9], in assay [10], in assay [11] and in assay [12] was > 100 µM (inactive) each time. Besides, the GI50 was > 100 µM (inactive) in [13]; 50.7 µM (inactive) in [14]; > 100 µM (inactive) in assay [15]; > 100 µM (inactive) in [16]; > 100 µM (inactive) in assay [17]; > 100 µM (inactive) in assay [18].

Regarding `COc1cccc(-c2c(C#N)c(N)nc3c2CCS(=O)(=O)c2ccc(C)cc2-3)c1`, the GI50 in [1] was 68.1 µM (inactive); in assay [2] it was > 100 µM (inactive); in assay [4] it was > 100 µM (inactive); in assay [5] it was > 100 µM (inactive); in assay [6], > 100 µM (inactive); in assay [19], > 100 µM (inactive). Moreover, the GI50 was 95.5 µM (inactive) in assay [7]; > 100 µM (inactive) in [8]; > 100 µM (inactive) in [20]; > 100 µM (inactive) in [11]; > 100 µM (inactive) in assay [12]; 65.2 µM (inactive) in [13]. The GI50 in assay [14] is 33 µM (inactive); in [15], > 100 µM (inactive); in [16], > 100 µM (inactive); in assay [17], > 100 µM (inactive); in [18], > 100 µM (inactive).

For the compound `O=C1C(Cl)N(c2ccc([N+](=O)[O-])cc2)C1c1c[nH]c2ccccc12` (configuration not stated), the GI50 in assay [1] was 42.1 µM (inactive); in assay [2], > 100 µM (inactive); in [3], 28.6 µM (inactive); in assay [4], > 100 µM (inactive); in [5], 41.7 µM (inactive); in assay [6], > 100 µM (inactive). Also, the GI50 was 53 µM (inactive) in [7]; 64.7 µM (inactive) in assay [8]; 56.6 µM (inactive) in assay [9]; > 100 µM (inactive) in assay [10]; > 100 µM (inactive) in [11]; > 100 µM (inactive) in [12]. The GI50 in [13] was 64.1 µM (inactive); in assay [14], > 100 µM (inactive); in assay [15] it was 48.1 µM (inactive); in assay [16], 62.5 µM (inactive); in assay [17] it was 86.9 µM (inactive); in [18] it was > 100 µM (inactive).

`COc1cccc(CCn2c(N)c(-c3cc(Cl)cc(Cl)c3)c3ccc([N+](=O)[O-])cc3c2=O)c1`: the GI50 in assay [1] was 2.83 µM (inactive); in assay [2], 3.9 µM (inactive); in assay [3], 1.88 µM (inactive); in assay [4], 18.1 µM (inactive); in assay [5], 3.04 µM (inactive); in assay [6], 4.84 µM (inactive). Besides, the GI50 was 3.5 µM (inactive) in [19]; 7.55 µM (inactive) in [7]; 3.95 µM (inactive) in [8]; 8.89 µM (inactive) in assay [9]; 3.56 µM (inactive) in assay [20]; 2.03 µM (inactive) in [11]. For the same compound, the GI50 is 2.07 µM (inactive) in [12]; 3.33 µM (inactive) in assay [13]; 4.39 µM (inactive) in assay [14]; 5.52 µM (inactive) in [15]; 3.63 µM (inactive) in assay [16]; 2.35 µM (inactive) in assay [17]. Moreover, the GI50 in [18] was 4.04 µM (inactive).

For the compound `Cc1n(CC(=O)c2ccc([N+](=O)[O-])cc2)c2c([n+]1CC(C)C)C(=O)c1ccccc1C2=O`, the GI50 in [1] is < 0.01 µM (active); in [2], < 0.0123 µM (active); in [3], < 0.0204 µM (active); in assay [4], < 0.0318 µM (active); in [5], < 0.04 µM (active); in assay [6], 0.0411 µM (active). The GI50 was 0.121 µM (active) in [19]; < 0.0178 µM (active) in assay [7]; 0.361 µM (active) in [9]; 0.668 µM (active) in assay [20]; < 0.01 µM (active) in assay [11]; < 0.0106 µM (active) in assay [12]. For the same compound, the GI50 in assay [13] was < 0.01 µM (active); in assay [14], < 0.0356 µM (active); in [15] it was < 0.0131 µM (active); in assay [16], < 0.01 µM (active); in assay [17] it was < 0.01 µM (active); in [18], < 0.01 µM (active).
